US20170291905A1, “ARGININE […] INHIBITORS AND USES THEREOF” (Epizyme, Inc., priority 2014, published 2017)
pIC50: −log10 of the molar value.

Each compound was assayed against T1, full-length human PRMT1 isoform 1 (GST-tagged) (Homo sapiens, UniProt Q99873) (assay: PRMT1 biochemical assay (3H-SAM Flashplate, histone H4 36-50 peptide)). Conditions: 0.5 nM PRMT1, 30 min preincubation, 20 nM peptide.
T1 construct: GST-tagged PRMT1 was eluted with 50 mM Tris, 2 mM glutathione, pH 7.8, dialysed in buffer A and concentrated; made in house; host or cells: High Five insect cells (baculovirus)
T1 sequence (Q99873 with tags, fused parts or gaps): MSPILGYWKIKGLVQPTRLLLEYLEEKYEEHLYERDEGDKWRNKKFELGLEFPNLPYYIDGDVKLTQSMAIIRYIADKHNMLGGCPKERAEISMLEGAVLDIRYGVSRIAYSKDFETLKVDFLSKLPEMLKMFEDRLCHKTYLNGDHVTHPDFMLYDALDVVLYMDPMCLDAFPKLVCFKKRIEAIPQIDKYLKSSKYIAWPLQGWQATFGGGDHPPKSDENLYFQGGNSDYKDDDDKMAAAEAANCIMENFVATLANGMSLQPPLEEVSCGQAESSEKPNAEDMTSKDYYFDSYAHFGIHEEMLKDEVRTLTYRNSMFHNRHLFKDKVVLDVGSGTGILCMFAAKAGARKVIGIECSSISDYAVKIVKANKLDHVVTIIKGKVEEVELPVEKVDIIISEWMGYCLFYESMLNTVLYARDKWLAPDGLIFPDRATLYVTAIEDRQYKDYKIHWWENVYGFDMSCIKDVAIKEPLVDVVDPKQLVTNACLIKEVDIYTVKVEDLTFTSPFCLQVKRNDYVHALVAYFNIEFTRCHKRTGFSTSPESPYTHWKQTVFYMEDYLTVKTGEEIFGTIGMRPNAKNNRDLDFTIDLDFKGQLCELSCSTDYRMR
Text: S-adenosylmethionine (SAM), S-adenosylhomocysteine (SAH), bicine, Tween20, dimethylsulfoxide (DMSO), bovine skin gelatin (BSG), and Tris(2-carboxyethyl)phosphine hydrochloride solution (TCEP) were purchased from Sigma-Aldrich at the highest level of purity possible. ^3H-SAM was purchase from American Radiolabeled Chemicals with a specific activity of 80 Ci/mmol. 384-well streptavidin Flashplates were purchased from PerkinElmer.
Peptide representative of human histone H4 residues 36-50 was synthesized with an N-terminal linker-affinity tag motif and a C-terminal amide cap by 21st Century Biochemicals. The peptide was purified by high-performance liquid chromatography (HPLC) to greater than 95% purity and confirmed by liquid chromatography mass spectrometry (LC-MS). The sequence was Biot-Ahx-[…]-amide (SEQ ID NO.:1).
Full-length human PRMT1 isoform 1 (NM_001536.5) transcript clone was amplified from an HEK 293 cDNA library, incorporating flanking 5′ sequence encoding a FLAG tag ([…]) (SEQ ID NO.:2) fused directly to Met 1 of PRMT1. The amplified gene was subcloned into pFastBacI (Life Technologies) modified to encode an N-terminal GST tag and a TEV cleavage sequence
Recombinant baculovirus were generated according to Bac-to-Bac kit instructions (Life Technologies). Protein over-expression was accomplished by infecting exponentially growing High Five insect cell culture at 1.5×10^6 cell/ml with 1:100 ratio of virus. Infections were carried out at 27° C. for 48 hours, harvested by centrifugation, and stored at −80° C. for purification.
GST-tagged PRMT1 was eluted with 50 mM Tris, 2 mM glutathione, pH 7.8, dialysed in buffer A and concentrated to 1 mg/mL. The purity of recovered protein was 73%. Reference: Wasilko, D. J. and S. E. Lee: “TIPS: titerless infected-cells preservation and scale-up” Bioprocess J., 5 (2006), pp. 29-32.
General Procedure for PRMT1 Enzyme Assays on Peptide Substrates.
The assays were all performed in a buffer consisting of 20 mM Bicine (pH=7.6), 1 mM TCEP, 0.005% BSG, and 0.002% Tween 20, prepared on the day of use. Compounds in 100% DMSO (1 ul) were spotted into a polypropylene 384-well V-bottom plates (Greiner) using a Platemate Plus outfitted with a 384-channel head (Thermo Scientific). DMSO (1 ul) was added to Columns 11, 12, 23, 24, rows A-H for the maximum signal control and 1 ul of SAH, a known product and inhibitor of PRMT1, was added to columns 11, 12, 23, 24, rows I-P for the minimum signal control. A cocktail (40 ul) containing the PRMT1 enzyme was added by Multidrop Combi (Thermo-Fisher). The compounds were allowed to incubate with PRMT1 for 30 min at room temperature, then a cocktail (10 ul) containing SAM and peptide was added to initiate the reaction (final volume=51 ul). The final concentrations of the components were as follows: PRMT1 was 0.5 nM, ^3H-SAM was 200 nM, non-radiolabeled SAM was 1.5 uM, peptide was 20 nM, SAH in the minimum signal control wells was 1 mM, and the DMSO concentration was 2%. The assays were stopped by the addition of non-radiolabeled SAM (10 ul) to a final concentration of 300 uM, which dilutes the ^3H-SAM to a level where its incorporation into the peptide substrate is no longer detectable. 50 ul of the reaction in the 384-well polypropylene plate was then transferred to a 384-well Flashplate and the biotinylated peptides were allowed to bind to the streptavidin surface for at least 1 hour before being washed once with 0.1% Tween20 in a Biotek ELx405 plate washer. The plates were then read in a PerkinElmer TopCount plate reader to measure the quantity of ^3H-labeled peptide bound to the Flashplate surface, measured as disintegrations per minute (dpm) or alternatively, referred to as counts per minute (cpm).
Where dpm=disintegrations per minute, cmpd=signal in assay well, and min and max are the respective minimum and maximum signal controls. […]

Row | pIC50 | SMILES
1 | 7.28 | CNCCN(C)Cc1c[nH]nc1C1CCC(C)(C)[C@H](COCCOC)C1 (stereo partly drawn) [compound 35, {2-[({3-[(3R)-3-[(2-methoxyethoxy)methyl]-4,4-dimethylcyclohexyl]-1H-pyrazol-4-yl}methyl)(methyl)amino]ethyl}(methyl)amine]
2 | 8.10 | CCCOCC1(COCCC)CCC(c2n[nH]cc2CN(C)CCNC)CC1 [compound 36, N^1-((3-(4,4-bis(propoxymethyl)cyclohexyl)-1H-pyrazol-4-yl)methyl)-N^1,N^2-dimethylethane-1,2-diamine]
3 | 7.60 | CC[C@]12CC[C@](CC)(C[C@H](c3n[nH]cc3CN(C)CCNC)C1)O2 [compound 37, N1-((3-((1R,3r,5S)-1,5-diethyl-8-oxabicyclo[3.2.1]octan-3-yl)-1H-pyrazol-4-yl)methyl)-N1,N2-dimethylethane-1,2-diamine]
4 | 6.95 | CC[C@]12CC[C@](CC)(C[C@@H](c3n[nH]cc3CN(C)CCNC)C1)O2 [compound 38, N1-((3-((1R,3s,5S)-1,5-diethyl-8-oxabicyclo[3.2.1]octan-3-yl)-1H-pyrazol-4-yl)methyl)-N1,N2-dimethylethane-1,2-diamine]
5 | 7.68 | CNCCN(C)Cc1ccnn1[C@H]1CC[C@]2(CC1)CC(C)(C)CO2 [compound 50, N1-((1-((5r,8r)-3,3-dimethyl-1-oxaspiro[4.5]decan-8-yl)-1H-pyrazol-5-yl)methyl)-N1,N2-dimethylethane-1,2-diamine]
6 | 7.92 | Cc1[nH]nc([C@H]2CC[C@@]3(CC2)CC(C)(C)CO3)c1CN(C)CCN [compound 51, N1-((3-((5s,8s)-3,3-dimethyl-1-oxaspiro[4.5]decan-8-yl)-5-methyl-1H-pyrazol-4-yl)methyl)-N1-methylethane-1,2-diamine]
7 | 7.80 | Cc1[nH]nc([C@H]2CC[C@]3(CC2)CC(C)(C)CO3)c1CN(C)CCN [compound 52, N1-((3-((5r,8r)-3,3-dimethyl-1-oxaspiro[4.5]decan-8-yl)-5-methyl-1H-pyrazol-4-yl)methyl)-N1-methylethane-1,2-diamine]
8 | 7.59 | CNCCN(C)Cc1c(C)[nH]nc1[C@H]1CC[C@@]2(CC1)CC(C)(C)CO2 [compound 57]
9 | 7.41 | CNCCN(C)Cc1c(C)[nH]nc1[C@H]1CC[C@]2(CC1)CC(C)(C)CO2 [compound 58]
10 | 7.94 | Cc1[nH]nc(C2CCC3(CC2)CC(C)(C)CO3)c1CN(C)CCN (centres unmarked) [compound 59]
11 | 8.38 | CNCCN(C)Cc1scnc1[C@H]1CC[C@@]2(CC1)CC(C)(C)CO2 [compound 62]
12 | 7.50 | CNCCN(C)Cc1nn(C)nc1[C@H]1CC[C@@]2(CC1)CC(C)(C)CO2 [compound 64]
13 | < 5.00 | CNCCN(C)Cc1cnnn1[C@H]1CC[C@@]2(CC1)CC(C)(C)CO2 [compound 65]
14 | 7.94 | CNCCN(C)Cc1nn[nH]c1[C@H]1CC[C@@]2(CC1)CC(C)(C)CO2 [compound 67]
15 | 5.36 | CNCCN(C)Cc1nncn1[C@H]1CC[C@@]2(CC1)CC(C)(C)CO2 [compound 68]
16 | 6.59 | CNCCN(C)Cc1nccn1[C@H]1CC[C@@]2(CC1)CC(C)(C)CO2 [compound 69]
17 | 5.29 | CNCCN(C)Cc1nnc(C)n1[C@H]1CC[C@@]2(CC1)CC(C)(C)CO2 [compound 71]
18 | 7.84 | CNCCN(C)Cc1cncn1[C@H]1CC[C@@]2(CC1)CC(C)(C)CO2 [compound 76]
19 | 7.64 | CNCCN(C)Cc1nc(C)sc1[C@H]1CC[C@@]2(CC1)CC(C)(C)CO2 [compound 77]
20 | 7.64 | CNCCN(C)Cc1sc(C)nc1[C@H]1CC[C@@]2(CC1)CC(C)(C)CO2 [compound 78]
21 | 8.23 | CN(CCN)Cc1nn(C)cc1[C@H]1CC[C@@]2(CC1)CC(C)(C)CO2 [compound 80]
22 | 7.64 | CNCCN(C)Cc1nn(C)cc1[C@H]1CC[C@@]2(CC1)CC(C)(C)CO2 [compound 81]
23 | 7.83 | CNCCN(C)Cc1ncsc1[C@H]1CC[C@@]2(CC1)CC(C)(C)CO2 [compound 83]

Row | pIC50 | SMILES
24 | 7.85 | CNCCN(C)Cc1scnc1[C@H]1CC[C@]2(CC1)CC(C)(C)CO2 [compound 84]
25 | 7.30 | CNCCN(C)Cc1nn(C)nc1C1CCC2(CC1)CC(C)(C)CO2 (centres unmarked) [compound 86]
26 | 7.22 | CNCCN(C)Cc1nn[nH]c1[C@H]1CC[C@]2(CC1)CC(C)(C)CO2 [compound 89]
27 | < 5.00 | CNCCN(C)Cc1nncn1[C@H]1CC[C@]2(CC1)CC(C)(C)CO2 [compound 90]
28 | 5.99 | CNCCN(C)Cc1nccn1[C@H]1CC[C@]2(CC1)CC(C)(C)CO2 [compound 91]
29 | < 5.00 | CNCCN(C)Cc1nnc(C)n1[C@H]1CC[C@]2(CC1)CC(C)(C)CO2 [compound 93]
30 | 6.50 | CNCCN(C)Cc1c(Cl)ncn1[C@H]1CC[C@]2(CC1)CC(C)(C)CO2 [compound 97]
31 | 5.36 | CNCCN(C)Cc1cncn1[C@H]1CC[C@]2(CC1)CC(C)(C)CO2 [compound 98]
32 | 7.45 | CNCCN(C)Cc1nc(C)sc1[C@H]1CC[C@]2(CC1)CC(C)(C)CO2 [compound 99]
33 | 7.47 | CNCCN(C)Cc1sc(C)nc1[C@H]1CC[C@]2(CC1)CC(C)(C)CO2 [compound 100]
34 | 7.67 | CN(CCN)Cc1nn(C)cc1[C@H]1CC[C@]2(CC1)CC(C)(C)CO2 [compound 102]
35 | 7.43 | CNCCN(C)Cc1nn(C)cc1[C@H]1CC[C@]2(CC1)CC(C)(C)CO2 [compound 103]
36 | 7.34 | CN(CCN)Cc1c[nH]nc1[C@H]1CC[C@]2(CC1)CC(C)(C)CO2 [compound 106]
37 | 7.10 | CNCCN(C)Cc1c(C)noc1[C@H]1CC[C@@]2(CC1)CC(C)(C)CO2 [compound 113]
38 | 6.92 | CNCCN(C)Cc1c(C)noc1[C@H]1CC[C@]2(CC1)CC(C)(C)CO2 [compound 114]
39 | 7.29 | CNCCN(C)Cc1nocc1[C@H]1CC[C@@]2(CC1)CC(C)(C)CO2 [compound 117]
40 | 6.39 | CNCCN(C)Cc1nocc1[C@H]1CC[C@]2(CC1)CC(C)(C)CO2 [compound 118]
41 | 7.42 | CCOCC1(COCC)CCC(c2n[nH]cc2CN(C)CCN(C)C)CC1 [compound 121]
42 | 7.67 | CCOCC1(COCC)CCC(c2nn(C)cc2CN(C)CCNC)CC1 [compound 122]
43 | 8.37 | CCOCC1(COCC)CCC(c2n[nH]cc2CN(C)CCN)CC1 [compound 123]
44 | 7.86 | CCOCC1(COCC)CCC(c2nn(C)cc2CN(C)CCN)CC1 [compound 124]
45 | 7.97 | CNCCN(C)Cc1c[nH]nc1C1CCC2(CC1)CC(C)(C)OC2=O (centres unmarked) [compound 125]
46 | 7.84 | CNCCN(C)Cc1c[nH]nc1[C@H]1CC[C@@]2(CC1)COC(C)(C)C2 [compound 126, N1-((3-((5r,8r)-3,3-dimethyl-2-oxaspiro[4.5]decan-8-yl)-1H-pyrazol-4-yl)methyl)-N1,N2-dimethylethane-1,2-diamine]

Row | SMILES | pIC50
47 | CCOCC1(COCC)CC=C(c2n[nH]cc2CN(C)CCNC)CC1 [compound 60] | 7.83
48 | CN(CCN)Cc1c[nH]nc1[C@H]1CC[C@@]2(CC1)CC(C)(C)CO2 [compound 105] | 8.25
49 | CNCCN(C)Cc1n[nH]cc1[C@H]1CC[C@@]2(CC1)CC(C)(C)CO2 [compound 115] | 7.94
50 | CNCCN(C)Cc1n[nH]cc1[C@H]1CC[C@]2(CC1)CC(C)(C)CO2 [compound 116] | 7.64
